Measured values published in PubChem BioAssay (NCI).
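Method: 48-hour compound exposure of cells in 96-well plates, five concentrations, linear interpolation of endpoints. TGI denotes the concentration required for complete inhibition of growth.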

Assays:
Assay in all cases: DTP human tumour cell line panel, 48 h
[1] = test system: 786-0 renal
[2] = test system: A498 renal
[3] = test system: A549 NSCLC
[4] = test system: ACHN renal
[5] = test system: CAKI-1 renal
[6] = test system: CCRF-CEM leukemia
[7] = test system: COLO 205 colon
[8] = test system: DLD-1 colon
[9] = test system: DMS 114 small cell lung
[10] = test system: DMS 273 small cell lung
[11] = test system: EKVX NSCLC
[12] = test system: HCC-2998 colon
[13] = test system: HCT-116 colon
[14] = test system: HCT-15 colon
[15] = test system: HL-60(TB) leukemia
[16] = test system: HOP-18 NSCLC
[17] = test system: HOP-62 NSCLC
[18] = test system: HOP-92 NSCLC
[19] = test system: HT29 colon
[20] = test system: IGROV1 ovarian
[21] = test system: K-562 leukemia
[22] = test system: KM12 colon
[23] = test system: KM20L2 colon
[24] = test system: LOX IMVI melanoma
[25] = test system: LXFL 529 NSCLC
[26] = test system: M14 melanoma
[27] = test system: M19-MEL melanoma
[28] = test system: MALME-3M melanoma
[29] = test system: MOLT-4 leukemia
[30] = test system: NCI-H226 lung
[31] = test system: NCI-H23 lung
[32] = test system: NCI-H460 lung
[33] = test system: OVCAR-3 ovarian
[34] = test system: OVCAR-4 ovarian
[35] = test system: OVCAR-5 ovarian
[36] = test system: OVCAR-8 ovarian
[37] = test system: RPMI-8226 leukemia
[38] = test system: RXF 393 renal
[39] = test system: SF-268 CNS
[40] = test system: SF-295 CNS
[41] = test system: SF-539 CNS
[42] = test system: SK-MEL-2 melanoma
[43] = test system: SK-MEL-28 melanoma
[44] = test system: SK-MEL-5 melanoma
[45] = test system: SK-OV-3 ovarian
[46] = test system: SN12C renal
[47] = test system: SNB-19 CNS
[48] = test system: SNB-75 CNS
[49] = test system: SNB-78 CNS
[50] = test system: SR leukemia
[51] = test system: SW-620 colon
[52] = test system: TK-10 renal
[53] = test system: U251 CNS
[54] = test system: UACC-257 melanoma
[55] = test system: UACC-62 melanoma
[56] = test system: UO-31 renal
[57] = test system: NCI-H522 lung

CN/N=C(\C(=O)Nc1ccc([N+](=O)[O-])cc1[N+](=O)[O-])C1NC(=O)NC1=O (centres undefined)
TGI [1]: > 100 µM | TGI [2]: > 100 µM | TGI [3]: > 100 µM | TGI [4]: > 100 µM | TGI [5]: > 100 µM | TGI [6]: > 100 µM | TGI [7]: > 100 µM | TGI [8]: > 100 µM | TGI [9]: > 100 µM | TGI [10]: > 100 µM | TGI [11]: > 100 µM | TGI [12]: > 100 µM | TGI [13]: > 100 µM | TGI [14]: > 100 µM | TGI [15]: > 100 µM | TGI [16]: > 100 µM | TGI [17]: > 100 µM | TGI [18]: > 100 µM | TGI [19]: > 100 µM | TGI [20]: > 100 µM | TGI [21]: > 100 µM | TGI [22]: > 100 µM | TGI [23]: > 100 µM | TGI [24]: > 100 µM | TGI [25]: > 100 µM | TGI [26]: > 100 µM | TGI [27]: > 100 µM | TGI [28]: > 100 µM | TGI [29]: > 100 µM | TGI [30]: > 100 µM | TGI [31]: > 100 µM | TGI [32]: > 100 µM | TGI [33]: > 100 µM | TGI [34]: > 100 µM | TGI [35]: > 100 µM | TGI [36]: > 100 µM | TGI [37]: > 100 µM | TGI [38]: > 100 µM | TGI [39]: > 100 µM | TGI [40]: > 100 µM | TGI [41]: > 100 µM | TGI [42]: > 100 µM | TGI [43]: > 100 µM | TGI [44]: > 100 µM | TGI [45]: > 100 µM | TGI [46]: > 100 µM | TGI [47]: > 100 µM | TGI [48]: > 100 µM | TGI [49]: > 100 µM | TGI [50]: > 100 µM | TGI [51]: > 100 µM | TGI [52]: > 100 µM | TGI [53]: 96.1 µM | TGI [54]: > 100 µM | TGI [55]: > 100 µM | TGI [56]: > 100 µM

COC(=O)c1nn(C(=N)c2ccc(Cl)cc2)c2c1CCCCC2
TGI [1]: > 100 µM | TGI [2]: > 100 µM | TGI [3]: > 100 µM | TGI [4]: > 100 µM | TGI [5]: > 100 µM | TGI [6]: > 100 µM | TGI [7]: > 100 µM | TGI [8]: > 100 µM | TGI [9]: > 100 µM | TGI [10]: > 100 µM | TGI [12]: > 100 µM | TGI [13]: > 100 µM | TGI [14]: > 100 µM | TGI [15]: > 100 µM | TGI [17]: > 100 µM | TGI [18]: > 100 µM | TGI [19]: > 100 µM | TGI [20]: > 100 µM | TGI [21]: > 100 µM | TGI [22]: > 100 µM | TGI [23]: > 100 µM | TGI [24]: > 100 µM | TGI [25]: > 100 µM | TGI [26]: > 100 µM | TGI [27]: > 100 µM | TGI [28]: > 100 µM | TGI [29]: > 100 µM | TGI [30]: > 100 µM | TGI [31]: > 100 µM | TGI [32]: > 100 µM | TGI [57]: > 100 µM | TGI [34]: > 100 µM | TGI [35]: > 100 µM | TGI [37]: > 100 µM | TGI [38]: > 100 µM | TGI [39]: > 100 µM | TGI [40]: > 100 µM | TGI [41]: > 100 µM | TGI [42]: > 100 µM | TGI [43]: > 100 µM | TGI [44]: > 100 µM | TGI [45]: > 100 µM | TGI [46]: > 100 µM | TGI [47]: > 100 µM | TGI [48]: > 100 µM | TGI [49]: > 100 µM | TGI [50]: > 100 µM | TGI [51]: > 100 µM | TGI [52]: > 100 µM | TGI [53]: > 100 µM | TGI [54]: > 100 µM | TGI [55]: > 100 µM | TGI [56]: > 100 µM
